Legend:
Assay in all cases: relative viability (nuclei count vs DMSO), 5 days (fraction); higher = more cells survive
GSK-J4 + Crizotinib = compound: CCOC(=O)CCNc1cc(N2CCc3ccccc3CC2)nc(-c2ccccn2)n1 [GSK-J4] + C[C@@H](Oc1cc(-c2cnn(C3CCNCC3)c2)cnc1N)c1c(Cl)ccc(F)c1Cl [Crizotinib] (partner 1 µM)
How it was run: (§1)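 Values are medians from duplicate plates. Each reflects relative viability, defined as the nuclei count of treated wells over that of vehicle wells. Lung cancer cell lines in 1536-well plates were pin-tool dosed one day after seeding with one drug alone or with a fixed anchor-drug dose plus five library-drug doses (not always all listed) in √10 steps, then fixed, stained and imaged at 4× after 5 days.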

AZ3146 + Tozasertib = compound: CN1CCC(CC1)OC2=CC(=C(C=C2)NC3=NC=C4C(=N3)N(C(=O)N4C)C5CCCC5)OC [AZ3146] + Cc1cc(Nc2cc(N3CCN(C)CC3)nc(Sc3ccc(NC(=O)C4CC4)cc3)n2)n[nH]1 [Tozasertib] (partner 0.1 µM)
How it was run: as §1

AZ3146 + Vorinostat = compound: CN1CCC(CC1)OC2=CC(=C(C=C2)NC3=NC=C4C(=N3)N(C(=O)N4C)C5CCCC5)OC [AZ3146] + O=C(CCCCCCC(=O)Nc1ccccc1)NO [Vorinostat] (partner 1 µM)
How it was run: as §1

GSK-J4 + Decitabine = compound: CCOC(=O)CCNc1cc(N2CCc3ccccc3CC2)nc(-c2ccccn2)n1 [GSK-J4] + Nc1ncn([C@H]2C[C@H](O)[C@@H](CO)O2)c(=O)n1 [Decitabine] (partner 2 µM)
How it was run: as §1

Row | Cell Line | relative viability (GSK-J4 + Crizotinib; first compound 0.5 µM) | relative viability (GSK-J4 + Crizotinib; first compound 1.581 µM) | relative viability (GSK-J4 + Crizotinib; first compound 5 µM) | relative viability (GSK-J4 + Crizotinib; first compound 15.81 µM) | relative viability (GSK-J4 + Crizotinib; first compound 50 µM) | relative viability (AZ3146 + Tozasertib; first compound 0.08 µM) | relative viability (AZ3146 + Tozasertib; first compound 0.253 µM) | relative viability (AZ3146 + Tozasertib; first compound 0.8 µM) | relative viability (AZ3146 + Tozasertib; first compound 2.53 µM) | relative viability (AZ3146 + Tozasertib; first compound 8 µM) | relative viability (AZ3146 + Vorinostat; first compound 0.08 µM) | relative viability (AZ3146 + Vorinostat; first compound 0.253 µM) | relative viability (AZ3146 + Vorinostat; first compound 0.8 µM) | relative viability (AZ3146 + Vorinostat; first compound 2.53 µM) | relative viability (AZ3146 + Vorinostat; first compound 8 µM) | relative viability (GSK-J4 + Decitabine; first compound 0.5 µM) | relative viability (GSK-J4 + Decitabine; first compound 1.581 µM) | relative viability (GSK-J4 + Decitabine; first compound 15.81 µM) | relative viability (GSK-J4 + Decitabine; first compound 50 µM) | relative viability (GSK-J4 + Decitabine; first compound 5 µM)
1 | NCI-H1915 | 0.852 | 0.826 | 0.87 | 0.915 | 0.804 | 0.409 | 0.483 | 0.367 | 0.381 | 0.351 | 0.371 | 0.513 | 0.535 | 0.559 | 0.498 | 0.253 | 0.235 | 0.239 | 0.247 | 
2 | NCI-H2087 | 0.685 | 0.767 |  | 0.859 | 0.516 | 0.215 | 0.31 | 0.236 | 0.17 | 0.175 | 0.649 | 0.505 | 0.838 | 0.668 | 0.367 | 0.312 | 0.218 | 0.224 | 0.249 | 0.353
3 | NCI-H2085 | 0.839 | 0.609 | 0.617 | 0.794 | 0.906 | 0.747 | 0.786 | 0.727 | 0.587 | 0.508 | 0.75 | 0.786 | 0.779 | 0.789 | 0.701 | 0.511 | 0.501 | 0.548 | 0.491 | 0.512

From the supplement of paper PMC10307832
